Data set [1] has as its target T1, GHB-DH fusion protein (Cupriavidus necator, UniProt Q59104). It counts as biochemical, Ralstonia eutropha. Also on record: made in house; host or cells: E. coli pLysS cells (Novagene), vector pGEX-2T/GHB-DH. On the procedure: A number of potential stabilizing agents were tested for their suitability in stabilizing a formulation of a GST fusion protein comprising the R. eutropha SSA reductase. Enzymatic activity of the purified fusion protein was studied after storage in different formulations for 21 days at 4° C. […] A range of concentrations of ammonium sulfate and glycerol were tested. […] GHB-DH may contain bound iron and copper ions (Wolf, 1995), which chelating agents can sequester and thereby denature and/or inactivate the oxidoreductase.
Enzymatic assay for GHB based on formation of NADH. GHB-DH activity was assayed at 23° C. in 1 ml of buffer (97 mM 2-amino-2-methyl-1,3-propanediol (AMPD) adjusted to pH 8.5 with HCl) containing 14 μg purified fusion protein and 1 mM NAD^+ in a cuvette of 1 cm path length at 23° C. (Valentin, 1995). Reaction was initiated by the addition of GHB to 20 mM, and formation of NADH was monitored by the increase in absorbance at 334 nm (FIG. 4A).
Stability of fusion protein. The GHB-DH enzymatic activity of R. eutropha GHB-DH fusion protein was studied after storage for 21 days at 4° C. under various conditions (FIG. 5). Fourteen μg of protein was assayed using the method described in Example 4. Test enzyme solutions included the crude lysate, purified fusion protein at 7 mg/ml in 50 mM NaCl and 30 mM MOPS adjusted to pH 7.4 with NaOH, and purified fusion protein at 7 mg/ml in the same buffer also containing potential stabilizing agents.

The target of data set [2] is T1, GHB-DH fusion protein. It counts as biochemical, Ralstonia eutropha. Also on record: made in house; host or cells: E. coli pLysS cells (Novagene), vector pGEX-2T/GHB-DH. The source holds these as a separate data set.
In data set [3] the target is purified GHB-DH fusion protein (Cupriavidus necator, UniProt Q59104). The note with it: for weaker affinity for GHB-DH than GHB: ethanol relative to GHB.
Data set [4] has as its target T2, R. eutropha GHB-DH (Cupriavidus necator, UniProt Q59104). It counts as biochemical, Ralstonia eutropha. On the set-up: made in house; host or cells: E. coli pLysS cells (Novagene), vector pGEX-2T/GHB-DH. The following applies: 20 mM GHB in the same concentrations of ethanol.
For data set [5] the following is noted: 150-pound person, cited from earlier work.
Data set [6] deals with T2, R. eutropha GHB-DH. Briefly: Economical dipstick assay for GHB in alcoholic beverages after evaporation.
Data set [7] deals with T1, GHB-DH fusion protein. Description: Detection of GHB in human urine on filter paper.
For a further data set, the system named is O=C(O)CCCO. Briefly: purified protein, by the assay type. The note with it: other: GHB as substrate, 5 μg fusion protein, pH 8.5, 23° C.
[8] abbreviates: purified fusion protein 7 mg/ml, 21 days at 4° C.

Where two headings read alike, the source gives them in different places. A value given as a limit tells only on which side of the number the result lay.

Turning to `O[C@H](CS)[C@H](O)CS` (racemic) [DTT, dithiothreitol], the “effect of agent on enzyme activity during storage” value (shortened to “effect of agent”) at GHB-DH fusion protein [1] (setting [8]) is “nearly completely inactivated enzyme activity”; on GHB-DH fusion protein [1] (purified fusion protein 7 mg/ml, 21 days at 4° C., listed as dithiothreitol), “drastically diminished enzyme activity”.
In the case of `OCCS` [BME, 2-mercaptoethanol], the “effect of agent” value is listed as “nearly completely inactivated enzyme activity” on GHB-DH fusion protein [1] (setting [8]) and “drastically diminished enzyme activity” on GHB-DH fusion protein [1] (purified fusion protein 7 mg/ml, 21 days at 4° C., listed as beta-mercaptoethanol).
For `O=C(O)CN(CCN(CC(=O)O)CC(=O)O)CC(=O)O` [EDTA, ethylene diamine tetraacetic acid], the “effect of agent” value at GHB-DH fusion protein [1] (setting [8]) was “nearly totally inactivated enzyme activity”; on GHB-DH fusion protein [1] (purified fusion protein 7 mg/ml, 21 days at 4° C., listed as ethylene diamine tetraacetic acid), “drastically diminished enzyme activity”.
`CCO` [Ethanol, ethanol]: the color produced result at GHB-DH fusion protein [2] (all concentrations of ethanol tested) is “little or no color”. The figures for the “weaker affinity for GHB-DH than GHB” value in data set [3] and in data set [3] (listed as ethanol) were “about 200 fold” and “approximately 200 fold”, respectively.
`O=C(O)CCCO` [GHB, 4-hydroxy-butanoic acid]: the “GHB concentration readily detected” value at GHB-DH fusion protein [2] (conjugated filters, assay buffer, 23° C.) was not above 2 mM. For the same compound, on R. eutropha GHB-DH [4], the “color produced on paper” value is “intense purple”. Further, the “effect in a person” value in data set [5] (1-gram dose) is “low degree of effect”; in data set [5] (2.5-gram dose) it was “coma”. Moreover, the color developed entry on R. eutropha GHB-DH [6] (20 mM GHB in 25 alcoholic beverages, 2 minutes) is listed as “intense purple color”. For the same compound, on R. eutropha GHB-DH [6] (evaporated sample, 2 minutes reaction at 23° C.), the “GHB concentration detected in alcoholic beverages” value was not above 1 mM. The Vmax was 0.049±0.001 A/min/μg in data set [3] (GHB as substrate (FIG. 6A)) and 0.049±0.001 Absorbance/min/μg fusion protein in data set [3] (GHB as substrate, 5 μg fusion protein). The figures for the color produced result on GHB-DH fusion protein [7] (0.1 mM GHB in human urine) and on GHB-DH fusion protein [7] (0.3 mM GHB in human urine) were “slight but definite purple” and “substantial purple”, respectively. The “GHB concentration in urine producing color” value at GHB-DH fusion protein [7] (human urine, dried or not dried, 5 minutes) is recorded as not above 0.1 mM.
For `N.N.O=S(=O)(O)O` [ammonium sulfate], the “effect of agent” value at GHB-DH fusion protein [1] (setting [8]) is “somewhat deleterious”. For the same compound, the “enzyme activity lost during storage” value on GHB-DH fusion protein [1] (range of concentrations of ammonium sulfate, 21 days at 4° C.) is not below 50%.
As to `OCC(O)CO` [glycerol], the “effect of agent” value on GHB-DH fusion protein [1] (5-20% glycerol, 4° C.) was “retained high degrees of enzyme activity”; on GHB-DH fusion protein [1] (10% glycerol, 21 days, 4° C.) it was “greatest retention”; on GHB-DH fusion protein [1] (50% glycerol at 4° C.), “deleterious”.
On to oxidized glutathione, for which the “effect of agent” value on GHB-DH fusion protein [1] (setting [8]) is “drastically diminished enzyme activity”; on GHB-DH fusion protein [1] (purified fusion protein 7 mg/ml, 21 days at 4° C., listed as oxidized GSH) it was “nearly totally inactivated enzyme activity”.
The term Km denotes the concentration of substrate that gives half-maximal velocity. Consider “purified GHB-DH fusion protein (Cupriavidus necator)”, for which the Km in the data set on O=C(O)CCCO worked out at 2190 ± 130 µM.
Take reduced glutathione: the “effect of agent” value at GHB-DH fusion protein [1] (setting [8]) is “drastically diminished enzyme activity”; at GHB-DH fusion protein [1] (purified fusion protein 7 mg/ml, 21 days at 4° C., listed as reduced GSH) it was “nearly totally inactivated enzyme activity”.

The record behind these values is US6703216B2, “Methods, compositions and apparatuses for detection of gamma-hydroxybutyric acid (GHB)” (priority 2002, dated 2004).
